Laboratory results published in PubChem BioAssay (NCI).
“And” between values parts separate entries of the source, which are not always exact repeats. Equal values may be shown once.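 48-hour exposure; five concentrations; linearly interpolated endpoints. GI50: concentration for 50% inhibition of growth. TGI denotes the concentration required for complete inhibition of growth.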

Legend:
Assay in all cases: DTP human tumour cell line panel, 48 h
A498 renal = test system: A498 renal
ACHN renal = test system: ACHN renal
EKVX NSCLC = test system: EKVX NSCLC
HCC-2998 colon = test system: HCC-2998 colon
HS 578T breast = test system: HS 578T breast
IGROV1 ovarian = test system: IGROV1 ovarian
LOX IMVI melanoma = test system: LOX IMVI melanoma
SF-539 CNS = test system: SF-539 CNS
SW-620 colon = test system: SW-620 colon
OVCAR-5 ovarian = test system: OVCAR-5 ovarian

Structure (SMILES)	GI50 (A498 renal)	GI50 (ACHN renal)	TGI (ACHN renal)	TGI (EKVX NSCLC)	GI50 (HCC-2998 colon)	TGI (HS 578T breast)	GI50 (IGROV1 ovarian)	TGI (IGROV1 ovarian)	GI50 (LOX IMVI melanoma)	GI50 (SF-539 CNS)	GI50 (SW-620 colon)	TGI (SW-620 colon)	TGI (A498 renal)	GI50 (EKVX NSCLC)	TGI (HCC-2998 colon)	GI50 (HS 578T breast)	TGI (LOX IMVI melanoma)	GI50 (OVCAR-5 ovarian)	TGI (OVCAR-5 ovarian)	TGI (SF-539 CNS)
COc1cc(C2c3[nH]c4ccccc4c3C[C@H]3COC(=O)N23)cc(OC)c1OC (stereo partly specified)	< 0.01 µM	< 0.01 µM	> 100 µM	> 100 µM	< 0.01 µM	0.0814 µM	0.0655 µM and < 0.01 µM	> 100 µM	< 0.01 µM	< 0.01 µM	< 0.01 µM	> 100 µM	–	–	–	–	–	–	–	–
C=C1C(=O)O[C@H]2[C@H]1CC/C(CNC(=O)Cc1c[nH]c3ccccc13)=C\CC[C@@]1(C)O[C@@H]21	13.8 µM	1.11 µM	11.4 µM	22.4 µM	4 µM	45.5 µM	0.833 µM	9.06 µM	0.355 µM	1.92 µM	0.352 µM	1.37 µM	26.9 µM	10.6 µM	15.5 µM	11.9 µM	1.54 µM	10.2 µM	24.2 µM	9.1 µM
Cc1c2cc[n+](C)cc2c(C)c2c1sc1ccccc12	–	–	33.7 µM	> 50.2 µM	–	0.692 µM	–	28.4 µM	–	–	–	33.1 µM	13.6 µM	–	6.28 µM	–	22.1 µM	–	15.6 µM	2.01 µM
Cc1ccc([N+](=O)[O-])cc1NC(=O)Nc1cccc(F)c1	1.61 µM	3.78 µM	23 µM	> 100 µM	4.02 µM	45.3 µM	5.78 µM	35.9 µM	5.78 µM	7.2 µM	4.66 µM	> 100 µM	9.76 µM	3.68 µM	> 100 µM	7.92 µM	> 100 µM	9.82 µM	> 100 µM	33.6 µM
O=C1c2ccccc2-c2c1c1ccccc1c(=O)n2CCCCNCCCn1c2c(c3ccccc3c1=O)C(=O)c1ccccc1-2	1.49 µM	0.0416 µM	2.31 µM	1.75 µM	0.698 µM	16 µM	–	–	0.0499 µM	0.492 µM	0.022 µM	0.528 µM	5.64 µM	0.782 µM	1.4 µM	0.822 µM	0.76 µM	0.676 µM	1.54 µM	2.07 µM
COc1ccc2[nH]c(=O)c3c4ccccc4cn3c2c1	0.383 µM	0.486 µM	1.72 µM	12.4 µM	0.332 µM	0.775 µM	0.575 µM	5.23 µM	0.776 µM	0.657 µM	0.319 µM	1.39 µM	4.83 µM	0.878 µM	0.807 µM	0.25 µM	2.11 µM	0.659 µM	2.69 µM	2.53 µM
CCSCC1CC(O)(c2ccccc2)C(c2ccccc2)C(c2ccc(Cl)cc2)O1 (stereo unspecified)	1.79 µM	1.81 µM	3.68 µM	4.29 µM	1.82 µM	8.87 µM	2.01 µM	4.88 µM	1.65 µM	1.76 µM	1.82 µM	4.39 µM	3.41 µM	1.38 µM	3.58 µM	2.5 µM	3.05 µM	1.82 µM	3.54 µM	3.56 µM
Cc1cccc(NC(=O)CCc2ccc(N3C(N)=NC(N)=NC3(C)C)cc2)c1	> 65.6 µM	> 100 µM	> 100 µM	> 100 µM	3.34 µM	> 100 µM	0.603 µM	> 100 µM	0.654 µM	1.93 µM	1.13 µM	> 100 µM	> 100 µM	–	> 100 µM	> 52 µM	> 100 µM	> 37.2 µM	> 100 µM	> 100 µM
Cc1c(N2CCCC2)cc2c(c1NC(=O)c1ccccc1Cl)C(C)(C)CC2(C)C	–	–	28.4 µM	29.9 µM	–	38.4 µM	–	28 µM	–	–	–	33.1 µM	29.1 µM	–	25.9 µM	–	27.4 µM	–	32.2 µM	39.7 µM
COc1ccc(C2CC(c3cc(OC)c(OC)c(OC)c3)=NO2)cc1OCCCCOc1cc2c(cc1OC)C(=O)N1CCC[C@H]1C=N2 (stereo partly specified)	1.72 µM	2.41 µM	5.71 µM	25 µM	1.58 µM	3.82 µM	1.57 µM	3.06 µM	1.47 µM	1.8 µM	1.55 µM	3.15 µM	3.22 µM	3.68 µM	3.04 µM	1.1 µM	2.84 µM	3.13 µM	8.34 µM	3.46 µM
CCN1CCN(Cc2ccc(-c3cc4c(N[C@H](C)c5ccccc5)ncnc4[nH]3)cc2)CC1	0.947 µM and 0.35 µM	0.0625 µM and 0.162 µM	12.5 µM and > 10 µM	> 10 µM	7.63 µM and > 10 µM	9.79 µM and 5.24 µM	0.112 µM and 0.176 µM	1.51 µM and 7.17 µM	1.51 µM and 1.24 µM	2.07 µM and 1.9 µM	3.45 µM and 5.46 µM	19.9 µM and > 10 µM	2.82 µM and 2.08 µM	0.308 µM	22.3 µM and > 10 µM	2.1 µM and 0.763 µM	3.06 µM and 2.78 µM	0.708 µM and 1.61 µM	23.9 µM and > 10 µM	5.67 µM and 5.14 µM
COc1cccc2c1C(=O)C=CC2=O	–	–	10.5 µM	32.8 µM	–	> 100 µM	–	27.2 µM	–	–	–	23.6 µM	29.9 µM	–	29.3 µM	–	–	–	33 µM	30.1 µM
O=[N+]([O-])c1ccc(S(=O)(=O)Cc2ccccc2)c([N+](=O)[O-])c1	–	–	2.92 µM	4.36 µM	–	> 91.7 µM	–	6.36 µM	–	–	–	20.1 µM	31.1 µM	–	19.7 µM	–	3.39 µM	–	27.3 µM	3.8 µM
CC[C@]1(O)CC(OC2CC(N(C)C)C(O)C(C)O2)c2c(cc3c(c2O)C(=O)c2c(O)cccc2C3=O)[C@@H]1C(=O)OC (stereo partly specified)	–	–	0.963 µM	3.86 µM	–	4.21 µM	–	3.21 µM	–	–	–	3.95 µM	1.13 µM	–	1.54 µM	–	0.635 µM	–	13.9 µM	2.51 µM
C[C@@H]1COCCN1c1cc(C2([S@](C)(=N)=O)CC2)nc(-c2ccnc3[nH]ccc23)n1	0.43 µM and 1.27 µM	0.818 µM and 1.65 µM	> 100 µM	61.7 µM and > 10 µM	2.56 µM and 4.97 µM	29.6 µM and > 10 µM	4.24 µM and 2.23 µM	68.6 µM and > 10 µM	0.903 µM and 2.75 µM	1.19 µM and 1.99 µM	4.79 µM and > 10 µM	> 100 µM	3.71 µM and 8.78 µM	6.07 µM and > 10 µM	> 100 µM	2.93 µM and 3.72 µM	12.7 µM and > 10 µM	5.03 µM and 6.98 µM	99.8 µM and > 10 µM	8.03 µM and > 10 µM
O=C[C@@H](CO)O[C@H](C=O)c1c[nH]c(=O)[nH]c1=O	–	–	719 µM	329 µM	–	402 µM	–	343 µM	–	–	–	646 µM	744 µM	–	338 µM	–	886 µM	–	379 µM	428 µM
NCCNc1c2c(c(NCCN)c3c(CO)c[nH]c13)C(=O)c1ccccc1C2=O	41.2 µM	35.9 µM	> 100 µM	56.2 µM	7.14 µM	38.9 µM	15 µM	> 100 µM	8.32 µM	3.89 µM	8.7 µM	> 100 µM	> 100 µM	19.7 µM	52.3 µM	3.27 µM	> 100 µM	48.7 µM	> 100 µM	39.3 µM
Clc1ccc(CSC(Cn2ccnc2)c2ccc(Cl)cc2Cl)cc1 (stereo unspecified)	1.13 µM	2.28 µM	6.5 µM	4.55 µM	1.64 µM	5.02 µM	1.74 µM	4.55 µM	1.59 µM	1.73 µM	1.59 µM	3.1 µM	2.33 µM	1.53 µM	3.12 µM	1.97 µM	2.93 µM	2.13 µM	6.84 µM	3.36 µM
CN(C)CCOc1ccc(-c2nc(-c3ccc4c(c3)CC/C4=N\O)c(-c3ccncc3)[nH]2)cc1	4.68 µM and 8.84 µM	4.79 µM and 5.03 µM	9.01 µM and 22 µM	11 µM and 38.4 µM	4.74 µM and 8.01 µM	9.4 µM and 65.5 µM	4.38 µM and 18.6 µM	9.35 µM and 65.6 µM	0.934 µM and 1.51 µM	4.74 µM and 4.07 µM	4.07 µM and 2.15 µM	7.72 µM and 4.78 µM	9.57 µM and 27.2 µM	4.7 µM and 9 µM	8.89 µM and > 27.8 µM	3.96 µM and 25.7 µM	6.46 µM	3.7 µM and 1.61 µM	7.55 µM and 6.27 µM	9.3 µM and 7.77 µM
Cc1cc2nc(C(C)C(=O)c3ccc(Cl)cc3)c(=O)[nH]c2cc1C (stereo unspecified)	–	–	> 100 µM	64.3 µM	–	> 100 µM	–	> 100 µM	–	–	–	> 100 µM	> 100 µM	–	33.1 µM	–	> 100 µM	–	> 100 µM	93.1 µM
CC[C@]12CCCN3CCc4c(n(c5ccccc45)C(=O)C1)[C@@H]32	–	–	> 100 µM	> 100 µM	–	49.1 µM	–	> 100 µM	–	–	–	> 65 µM	> 65.9 µM	–	19.4 µM	–	> 100 µM	–	> 100 µM	> 51.9 µM
CCOC(=O)c1ccc2[nH]c(-c3ccc(S(=O)(=O)F)cc3)cc(=O)c2c1	–	–	84.2 µM	> 100 µM	–	> 100 µM	–	> 100 µM	–	–	–	> 100 µM	68 µM	–	40 µM	–	> 100 µM	–	> 100 µM	> 100 µM
COc1ccc(-c2cc(-c3cc(Cl)ccc3Cl)nc3n[nH]c(N)c23)cc1	21 µM	37.8 µM	> 100 µM	> 100 µM	15.2 µM	87 µM	28.3 µM	> 100 µM	20.1 µM	25.2 µM	8.16 µM	> 100 µM	57.5 µM	34.6 µM	34.6 µM	25.3 µM	> 100 µM	58.2 µM	> 100 µM	59 µM
O=C(O)CCNc1ccccc1C(=O)O	–	–	> 100 µM	> 100 µM	–	> 100 µM	–	> 100 µM	–	–	–	> 100 µM	> 100 µM	–	–	–	> 100 µM	–	> 100 µM	> 100 µM
COc1ccc2oc(=O)cc(C(c3ccc[nH]3)c3ccc[nH]3)c2c1	0.104 µM	0.124 µM	13.1 µM	21.5 µM	0.0973 µM	50.5 µM	0.106 µM	17.6 µM	0.104 µM	0.0937 µM	0.12 µM	16.8 µM	0.437 µM	0.278 µM	2.15 µM	0.171 µM	7.57 µM	0.128 µM	19.9 µM	0.451 µM
FC(F)(F)c1nc(N2CCCC2)ncc1-c1nnnn1-c1ccc(Cl)cc1	18.3 µM	18.7 µM	> 100 µM	> 100 µM	26.7 µM	> 100 µM	25.5 µM	> 100 µM	15.4 µM	39.8 µM	30.4 µM	> 100 µM	62.7 µM	29 µM	72.2 µM	21.2 µM	49.5 µM	> 100 µM	> 100 µM	> 100 µM
CN(Cc1cnc2nc(N)nc(N)c2n1)c1ccc(C(=O)NC(CCC(=O)O)C(=O)O)cc1C(F)(F)F (stereo unspecified)	–	–	> 100 µM	> 100 µM	–	> 100 µM	–	> 100 µM	–	–	–	> 100 µM	> 100 µM	–	> 100 µM	–	> 100 µM	–	> 100 µM	> 100 µM
O=C(NC1CCN(Cc2ccccc2)CC1)c1cc(-c2ccncc2)nc2ccc(Cl)cc12	–	6.71 µM	24.7 µM	–	21.6 µM	64 µM	18.5 µM	> 100 µM	12 µM	13.1 µM	19.8 µM	> 100 µM	3.45 µM	–	> 91.1 µM	14.4 µM	29.6 µM	13.9 µM	> 100 µM	35.9 µM
CCCCCCCCCCCCNC(C)=O	–	–	70 µM	25.6 µM	–	31.1 µM	–	–	–	–	–	30.9 µM	68 µM	–	37.5 µM	–	23.1 µM	–	–	29.9 µM
Cc1nc(-c2cccc(Nc3nc(-c4ccc(Cl)cc4)cs3)c2)cs1	12.3 µM	10.1 µM	17.5 µM	17.2 µM	–	34.9 µM	15.9 µM	32.7 µM	7.3 µM	–	11.9 µM	27 µM	20.9 µM	8.6 µM	–	14.1 µM	13.9 µM	–	–	–
